{"source": "patent US20250320194A1", "about": "“PHARMACEUTICALLY ACCEPTABLE SALT AND CRYSTAL FORM OF FUSED PYRIDINE RING DERIVATIVE AND PREPARATION METHOD THEREFOR” (Jiangsu Hengrui Pharmaceuticals Co., Ltd., priority 2021, published 2025)", "key": {"[1]": {"experiment": "Stability under influencing factors (high temperature, high humidity, open, 30 days)"}, "[2]": {"experiment": "Hygroscopicity of salt crystal forms (DVS, 25° C.)", "type": "physicochemical", "conditions": "for Hygroscopicity 0.0% RH-95.0% RH / Hygroscopicity 20.0% RH-80.0% RH: DVS, 25° C.; for Crystal form: after DVS", "experimental": "The test adopts SMS DVS Advantage, at 25° C., with a humidity range of 0 to 95% and a step of 10%. The judgment standard is that the dM/dT of each gradient mass change is less than 0.002%, TMAX is 360 minutes, and the cycle is two times. • 5. Cation chromatography • Instrument model: DIONEX AQUION ion chromatograph, USA • Detection method: conductivity; separation column: IonPac CS16-CG16 • Eluent: MSA 20Mm • Flow rate: 1.0 ml/min • 6. Anion chromatography • Instrument model: DIONEX INTEGRION HPIC ion chromatograph, USA • Detection method: conductivity; separation column: DionexIonPac™-AS11-HC • Eluent: EGC-500-KOH • Flow rate: 1.5 ml/min\nUsing Surface Measurement Systems advantage, at 25° C., the humidity starts from 50%, the humidity range is 0% to 95%, the step is 10%. The judgment standard was that the dM/dT of each gradient mass change is less than 0.002%, TMAX360 min, and the cycle was two times. The hygroscopicity of different salt crystal forms of the compound of formula I was investigated respectively."}, "[3]": {"experiment": "Long-term/accelerated stability"}}}
{"smiles": "CC(C)(C#Cc1nc(C(Cc2cc(F)cc(F)c2)NC(=O)Cn2nc(C(F)(F)F)c3c2C(F)(F)C2CC32)c(-c2ccc(Cl)c3c([N-]S(C)(=O)=O)nn(CC(F)(F)F)c23)c2c1CCC2)S(C)(=O)=O.C[N+](C)(C)CCO", "note": "(stereo not shown) [Crystal form B of the choline salt]", "values": [{"measurement": "Color, properties", "setting": "[1]; 40° C., 5 days", "result": "White solid"}, {"measurement": "Crystal form", "setting": "[1]; 40° C., 5 days", "result": "Unchanged"}, {"measurement": "Purity %", "setting": "[1]; 40° C., 5 days", "result": 98.34, "unit": "%"}, {"measurement": "Color, properties", "setting": "[1]; 40° C., 10 days", "result": "White solid"}, {"measurement": "Crystal form", "setting": "[1]; 40° C., 10 days", "result": "Unchanged"}, {"measurement": "Purity %", "setting": "[1]; 40° C., 10 days", "result": 98.33, "unit": "%"}, {"measurement": "Color, properties", "setting": "[1]; 40° C., 30 days", "result": "White solid"}, {"measurement": "Crystal form", "setting": "[1]; 40° C., 30 days", "result": "Unchanged"}, {"measurement": "Purity %", "setting": "[1]; 40° C., 30 days", "result": 98.35, "unit": "%"}, {"measurement": "Color, properties", "setting": "[1]; 60° C., 5 days", "result": "White solid"}, {"measurement": "Crystal form", "setting": "[1]; 60° C., 5 days", "result": "Unchanged"}, {"measurement": "Purity %", "setting": "[1]; 60° C., 5 days", "result": 98.39, "unit": "%"}, {"measurement": "Color, properties", "setting": "[1]; 60° C., 10 days", "result": "White solid"}, {"measurement": "Crystal form", "setting": "[1]; 60° C., 10 days", "result": "Unchanged"}, {"measurement": "Purity %", "setting": "[1]; 60° C., 10 days", "result": 98.36, "unit": "%"}, {"measurement": "Color, properties", "setting": "[1]; 60° C., 30 days", "result": "White solid"}, {"measurement": "Crystal form", "setting": "[1]; 60° C., 30 days", "result": "Unchanged"}, {"measurement": "Purity %", "setting": "[1]; 60° C., 30 days", "result": 98.36, "unit": "%"}, {"measurement": "Color, properties", "setting": "[1]; 75% RH, 5 days", "result": "White solid"}, {"measurement": "Crystal form", "setting": "[1]; 75% RH, 5 days", "result": "Unchanged"}, {"measurement": "Purity %", "setting": "[1]; 75% RH, 5 days", "result": 98.35, "unit": "%"}, {"measurement": "Color, properties", "setting": "[1]; 75% RH, 10 days", "result": "White solid"}, {"measurement": "Crystal form", "setting": "[1]; 75% RH, 10 days", "result": "Unchanged"}, {"measurement": "Purity %", "setting": "[1]; 75% RH, 10 days", "result": 98.35, "unit": "%"}, {"measurement": "Color, properties", "setting": "[1]; 75% RH, 30 days", "result": "White solid"}, {"measurement": "Crystal form", "setting": "[1]; 75% RH, 30 days", "result": "Unchanged"}, {"measurement": "Purity %", "setting": "[1]; 75% RH, 30 days", "result": 98.36, "unit": "%"}, {"measurement": "Color, properties", "setting": "[1]; 92.5% RH, 5 days", "result": "White solid"}, {"measurement": "Crystal form", "setting": "[1]; 92.5% RH, 5 days", "result": "Unchanged"}, {"measurement": "Purity %", "setting": "[1]; 92.5% RH, 5 days", "result": 98.45, "unit": "%"}, {"measurement": "Color, properties", "setting": "[1]; 92.5% RH, 10 days", "result": "White solid"}, {"measurement": "Crystal form", "setting": "[1]; 92.5% RH, 10 days", "result": "Unchanged"}, {"measurement": "Purity %", "setting": "[1]; 92.5% RH, 10 days", "result": 98.34, "unit": "%"}, {"measurement": "Color, properties", "setting": "[1]; 92.5% RH, 30 days", "result": "White solid"}, {"measurement": "Crystal form", "setting": "[1]; 92.5% RH, 30 days", "result": "Unchanged"}, {"measurement": "Purity %", "setting": "[1]; 92.5% RH, 30 days", "result": 98.35, "unit": "%"}, {"measurement": "Color, properties", "setting": "[1]; Start, 0 days", "result": "White solid"}, {"measurement": "Purity %", "setting": "[1]; Start, 0 days", "result": 98.34, "unit": "%"}, {"measurement": "Hygroscopicity 0.0% RH-95.0% RH", "setting": "[2]", "result": 9.92, "unit": "%"}, {"measurement": "Hygroscopicity 20.0% RH-80.0% RH", "setting": "[2]", "result": 5.96, "unit": "%"}, {"measurement": "Crystal form", "setting": "[2]", "result": "Unchanged"}]}
{"smiles": "CC(C)(C#Cc1nc(C(Cc2cc(F)cc(F)c2)NC(=O)Cn2nc(C(F)(F)F)c3c2C(F)(F)C2CC32)c(-c2ccc(Cl)c3c([N-]S(C)(=O)=O)nn(CC(F)(F)F)c23)c2c1CCC2)S(C)(=O)=O.[K+]", "note": "(stereo not shown) [Crystal form a of the potassium salt]", "values": [{"measurement": "physical and chemical stability (conclusion)", "setting": "[1]; 40° C., 60° C., 75% RH and 92.5% RH", "result": "good physical and chemical stability"}, {"measurement": "Color, properties", "setting": "[1]; 40° C., 5 days", "result": "White solid"}, {"measurement": "Crystal form", "setting": "[1]; 40° C., 5 days", "result": "Unchanged"}, {"measurement": "Purity %", "setting": "[1]; 40° C., 5 days", "result": 97.97, "unit": "%"}, {"measurement": "Color, properties", "setting": "[1]; 40° C., 10 days", "result": "White solid"}, {"measurement": "Crystal form", "setting": "[1]; 40° C., 10 days", "result": "Unchanged"}, {"measurement": "Purity %", "setting": "[1]; 40° C., 10 days", "result": 98.04, "unit": "%"}, {"measurement": "Color, properties", "setting": "[1]; 40° C., 30 days", "result": "White solid"}, {"measurement": "Crystal form", "setting": "[1]; 40° C., 30 days", "result": "Unchanged"}, {"measurement": "Purity %", "setting": "[1]; 40° C., 30 days", "result": 97.96, "unit": "%"}, {"measurement": "Color, properties", "setting": "[1]; 60° C., 5 days", "result": "White solid"}, {"measurement": "Crystal form", "setting": "[1]; 60° C., 5 days", "result": "Unchanged"}, {"measurement": "Purity %", "setting": "[1]; 60° C., 5 days", "result": 98.01, "unit": "%"}, {"measurement": "Color, properties", "setting": "[1]; 60° C., 10 days", "result": "White solid"}, {"measurement": "Crystal form", "setting": "[1]; 60° C., 10 days", "result": "Unchanged"}, {"measurement": "Purity %", "setting": "[1]; 60° C., 10 days", "result": 98.01, "unit": "%"}, {"measurement": "Color, properties", "setting": "[1]; 60° C., 30 days", "result": "White solid"}, {"measurement": "Crystal form", "setting": "[1]; 60° C., 30 days", "result": "Unchanged"}, {"measurement": "Purity %", "setting": "[1]; 60° C., 30 days", "result": 97.82, "unit": "%"}, {"measurement": "Color, properties", "setting": "[1]; 75% RH, 5 days", "result": "White solid"}, {"measurement": "Crystal form", "setting": "[1]; 75% RH, 5 days", "result": "Unchanged"}, {"measurement": "Purity %", "setting": "[1]; 75% RH, 5 days", "result": 97.96, "unit": "%"}, {"measurement": "Color, properties", "setting": "[1]; 75% RH, 10 days", "result": "White solid"}, {"measurement": "Crystal form", "setting": "[1]; 75% RH, 10 days", "result": "Unchanged"}, {"measurement": "Purity %", "setting": "[1]; 75% RH, 10 days", "result": 98.04, "unit": "%"}, {"measurement": "Color, properties", "setting": "[1]; 75% RH, 30 days", "result": "White solid"}, {"measurement": "Crystal form", "setting": "[1]; 75% RH, 30 days", "result": "Unchanged"}, {"measurement": "Purity %", "setting": "[1]; 75% RH, 30 days", "result": 98.02, "unit": "%"}, {"measurement": "Color, properties", "setting": "[1]; 92.5% RH, 5 days", "result": "White solid"}, {"measurement": "Crystal form", "setting": "[1]; 92.5% RH, 5 days", "result": "Unchanged"}, {"measurement": "Purity %", "setting": "[1]; 92.5% RH, 5 days", "result": 97.96, "unit": "%"}, {"measurement": "Color, properties", "setting": "[1]; 92.5% RH, 10 days", "result": "White solid"}, {"measurement": "Crystal form", "setting": "[1]; 92.5% RH, 10 days", "result": "Unchanged"}, {"measurement": "Purity %", "setting": "[1]; 92.5% RH, 10 days", "result": 98.04, "unit": "%"}, {"measurement": "Color, properties", "setting": "[1]; 92.5% RH, 30 days", "result": "White solid"}, {"measurement": "Crystal form", "setting": "[1]; 92.5% RH, 30 days", "result": "Unchanged"}, {"measurement": "Purity %", "setting": "[1]; 92.5% RH, 30 days", "result": 98.02, "unit": "%"}, {"measurement": "Color, properties", "setting": "[1]; Start, 0 days", "result": "White solid"}, {"measurement": "Purity %", "setting": "[1]; Start, 0 days", "result": 98.03, "unit": "%"}, {"measurement": "Hygroscopicity 0.0% RH-95.0% RH", "setting": "[2]", "result": 8.77, "unit": "%"}, {"measurement": "Hygroscopicity 20.0% RH-80.0% RH", "setting": "[2]", "result": 2.86, "unit": "%"}, {"measurement": "Crystal form", "setting": "[2]", "result": "Unchanged"}, {"measurement": "Crystal form", "setting": "[3]; 40° C., 75% RH", "result": "Deliquesce"}, {"measurement": "physical and chemical stability (conclusion)", "setting": "[3]; long-term accelerated stability conditions for 6 months", "result": "good physical and chemical stability"}]}
